What was measured:
[1] = Freeze-thaw stability of DBV in plasma samples
Description: Stability of DBV was assessed by comparing the nominal concentrations of LQC, MQC and HQC with those observed under two different conditions: • sample extracts kept on board at 10 °C for 24 h and frozen at −80 °C for 24 h; • plasma samples analyzed after three complete freeze and thaw cycles (from −80 °C to 25 °C).
Stability in the above operating conditions was deemed suitable if DBV concentrations were within ±15% of the nominal value.

[2] = Stability of DBV in sample extracts (autosampler, freezer); type: physicochemical; conditions: for Avg Accuracy (Bias%): vs nominal concentration, LC-MS/MS
[3] = human; cited from earlier work
[4] = human, in vivo
Description: Plasma samples (3 μL) were added to 47 μL of ultrapure water to achieve a dilution factor of 17 and then mixed with 150 μL of the IS-methanol solution (1 mg/L DBV-d6). The mixture was vortexed for 15 s and then centrifuged at room temperature at 13,000 rpm for 5 min. Subsequently, 50 µL of the clear supernatant was transferred to an autosampler vial, and a volume of 3 µL was injected into the LC-MS/MS system (Figure 2).
The presented ITD LC-MS/MS method was tested for measuring DBV concentrations in patients receiving DBV for the treatment of long-term subacute or chronic documented Gram-positive infections (namely osteoarticular infections, endocarditis, and endovascular prosthetic infections). In our study, DBV treatment was started according to the internal protocol consisting of two 1500 mg doses one week apart. Requirement for additional doses was assessed by the treating physician after at least four weeks according to the underlying clinical conditions of each patient. […] The number of samples assessed was 520. Samples for Dalbavancin TDM were usually collected at predefined timeframes between 21 and 35 days after first administration. […] Blood samples respected the cold chain delivery and were processed either immediately after delivery or after freezing at −80 °C until analysis, depending on case-by-case.

For `CN[C@H]1C(=O)N[C@@H]2Cc3ccc(cc3)Oc3cc4cc(c3O[C@@H]3O[C@H](C(=O)O)[C@@H](O)[C@H](O)[C@H]3NC(=O)CCCCCCCCC(C)C)Oc3ccc(cc3Cl)[C@@H](O)[C@@H]3NC(=O)[C@H](NC(=O)[C@@H]4NC(=O)[C@@H](NC2=O)c2cc(cc(O)c2Cl)Oc2cc1ccc2O)c1ccc(O)c(c1)-c1c(O[C@H]2O[C@H](CO)[C@@H](O)[C@H](O)[C@@H]2O)cc(O)cc1[C@@H](C(=O)NCCCN(C)C)NC3=O` [DBV, Dalbavancin], the “change of DBV concentrations after freeze and thaw cycles” value [1] was “decreased”, the “Avg Accuracy (Bias%)” value ([1]; human plasma samples, 1 freeze-thaw cycle (−80 °C to 25 °C), Low QC 7 mg/L, vs nominal, LC-MS/MS) was 14.8% and the “Avg Accuracy (Bias%)” value ([2]; extract (MeOH:H2O protein precipitation of plasma) kept in autosampler at 10 °C, post 24 h, Low QC 7 mg/L, acceptance ±15%) was 22.1%. The “Avg Accuracy (Bias%)” value ([2]; extract in freezer (−80 °C) post 24 h, High QC 280 mg/L) was 12.3%, the “Avg Accuracy (Bias%)” value ([2]; extract in freezer (−80 °C) post 24 h, Low QC 7 mg/L) was 16.8% and the “Avg Accuracy (Bias%)” value ([2]; extract in freezer (−80 °C) post 24 h, Medium QC 70 mg/L) was 6.7%. The “Avg Accuracy (Bias%)” value ([2]; extract kept in autosampler at 10 °C, post 24 h, High QC 280 mg/L) was 14.8%, the “Avg Accuracy (Bias%)” value ([2]; extract kept in autosampler at 10 °C, post 24 h, Medium QC 70 mg/L) was 9.4% and the “time for which autosampler extracts were stable” value ([2]; extracts kept at 10 °C) was “at least 24 h”. The plasma protein binding [3] was “very high”, the “DBV concentration, first quartile” value [4] was 11 mg/L and the “DBV concentration, maximum” value [4] was 77.0 mg/L. The “DBV concentration, minimum” value [4] was 2.0 mg/L, the “DBV concentration, third quartile” value [4] was 31.8 mg/L and the “DBV concentration, median” value ([4]; 1500 mg) was 18 mg/L.

— publication PMC9962402, “Fast and Simple Liquid Chromatography-Isotope Dilution Tandem Mass Spectrometry Method for Therapeutic Drug Monitoring of Dalbavancin in Long-Term Treatment of Subacute and/or Chronic Infections” (Pharmaceutics, 2023)
